# Assay results: article PMC9692523, “Exposure to (Poly)phenol Metabolites after a Fruit and Vegetable Supplement Intake: A Double-Blind, Cross-Over, Randomized Trial” (Nutrients, 2022)
# Tests used:
# [1] = Plasma pharmacokinetics of phenolic metabolites after one 450 mg capsule of the supplement (UHPLC-ESI-MS/MS); format: in vivo, human; details: for Cmax / Tmax / Tpres (time of presence of metabolites in circulation): n = 10, mean ± SEM; for Tpres (time of presence of metabolites in circulation): interval between first and last appearance; for AUC0-24: supplemented volunteers (n = 10), 450 mg capsule, mean ± SEM
# Protocol: (§1) This study was designed as a 3-week randomized, double-blind, cross-over clinical trial. Eligible participants were randomized using simple block randomization of 1:1. Once enrolled, subjects received either one 450 mg capsule of the test supplement or one 450 mg capsule of placebo on the first day of the study (Phase I: D1). After three days of sampling, volunteers started a wash-out period of 1 week and were then enrolled for the second test Phase with ingestion of the opposite supplement (Phase II: D1) (Figure 1). The placebo product was 100% maltodextrin, which was (poly)phenol-free.
# On the day of the test (D1), volunteers visited the Research Center after an overnight fast. Blood was collected at T0 to determine baseline levels of plasma phenolic metabolites. Then, volunteers were invited to take the 450 mg capsule of the supplement or the placebo with 250 mL of still water (Figure 2). Additional blood samples were then collected at 1 h (D1, T1), 2 h (D1, T2), 3 h (D1, T3), 4 h (D1, T4), 5 h (D1, T5), 6 h (D1, T6), 8 h (D1, T8), 10 h (D1, T10) and 24 h (D2, T24) after capsule intake. Blood was taken from the basilica vein and centrifuged at 3000 rpm for 10 min at 4 °C. Plasma was immediately extracted and frozen at −80 °C for further analysis.
# Plasma samples were then extracted using a solid phase extraction (SPE) method, as previously reported by Castello and colleagues. Briefly, 350 µL of plasma samples was diluted (1:1) with phosphoric acid 4% (v/v). After plate activation, 600 µL of the diluted plasma samples was loaded on a 96 well µ-SPE HLB (Oasis® HLB µElution Plate 30 µm, Waters, Milford, Massachusetts, MA, USA). Samples were washed with 200 µL of water and 200 µL of 0.2% (v/v) acetic acid. Finally, samples were eluted with 60 µL of methanol for UHPLC-ESI-MS/MS analysis.
# (§2) Plasma and urine samples were analyzed by a UHPLC DIONEX Ultimate 3000 equipped with a triple quadrupole TSQ Vantage (Thermo Fisher Scientific Inc) fitted with a heated ESI (H-ESI) (Thermo Fisher Scientific Inc) probe, as previously reported. Separations were carried out by means of a Kinetex EVO C18 (100 × 2.1 mm) column, 2.6 µm particle size (Phenomenex, Torrance, CA, USA), installed with a pre-column (Phenomenex). Mobile phase A was 0.2% formic acid in water, and mobile phase B was acetonitrile containing 0.2% formic acid. The gradient started with 5% B, and isocratic conditions were maintained for 0.5 min, reaching 95% B after 6.5 min, followed by 1 min at 95%. The starting gradient was then immediately re-established and maintained for 5 min to re-equilibrate the column. The flow rate was 0.4 mL/min, the injection volume was 5 µL and the column temperature was set at 40 °C.
# (§3) The applied MS method consisted of the selective determination of each target precursor ion by the acquisition of characteristic product ion in selective reaction monitoring (SRM) mode (Supplemental Table S2). For all the analyses, the spray voltage was set at 3 kV, the vaporizer temperature at 300 °C and the capillary temperature operated at 270 °C. The sheath gas flow was 50 units, and auxiliary gas pressure was set to 10 units. Ultra-high purity argon gas was used for collision-induced dissociation (CID). The S-lens values were defined for each compound based on infusion parameter optimization. Conversely, for those compounds not available for infusion, the S-lens values were set using the values obtained for the chemically closest available standards. Quantification was performed with calibration curves of standards when available or using the most structurally similar compound. Data processing was performed using Xcalibur software (Thermo Scientific Inc., San Jose, CA, USA).
# All data were expressed as mean values ± standard deviation (SD) and mean values ± standard error to the mean (SEM) for metabolites in blood and urine samples. […]
# [2] = Urinary excretion of phenolic metabolites over 48 h after one 450 mg capsule of the supplement (UHPLC-ESI-MS/MS); format: in vivo, human; details: urine, n = 10, mean ± SEM; for Urinary excretion 0 (h): baseline (day before)
# Protocol: as §1
# Urine samples were collected the day before (baseline) and during the 48 h period following the supplementation (T0-T3, T3-T6, T6-T10, T10-T14, T14-T24, T24-T32 and T32-T48) (Figure 2). Urine volumes at each collection period were registered, and samples were aliquoted and stored at −80 °C until further processing.
# Then, urine samples were prepared as previously reported by Brindani and colleagues. Briefly, urine samples were defrosted, vortexed, diluted in 0.1% formic acid in water (1:4, v/v) and centrifuged at 12,000 rpm for 5 min. Finally, urine samples were filtered (0.45 µm nylon filter) prior to UHPLC-ESI-MS/MS analysis.
# as §2, §3
# All data were expressed as mean values ± standard deviation (SD) and mean values ± standard error to the mean (SEM) for metabolites in blood and urine samples. PKSolver add-on program in Microsoft Excel was used to determine pharmacokinetic parameters of blood phenolic metabolites, including time to reach the maximum plasma concentration (Tmax, h), maximum plasma concentration (Cmax, nmol/L), area under the curve (AUC0-24, nmol/L·h), and time of presence of metabolites in circulation (Tpres, h). Tpres was calculated by taking the time interval between the first appearance and the last appearance of the considered metabolite. Coefficient of variation (CV) was evaluated for each metabolite and multivariate principal component analysis (PCA) was applied to explore the inter-individual variation in the urinary metabolites among the participants. […]
SMILES,Cmax [1] [µM],Tmax [1] [h],Tpres (time of presence of metabolites in circulation) [1] [h],AUC0-24 [1] [nM·h],Urinary excretion 0 (h) [2] [µg],Urinary excretion 0–3 (h) [2] [µg],Urinary excretion 3–6 (h) [2] [µg],Urinary excretion 6–10 (h) [2] [µg],Urinary excretion 10–14 (h) [2] [µg],Urinary excretion 14–24 (h) [2] [µg],Urinary excretion 24–32 (h) [2] [µg],Urinary excretion 32–48 (h) [2] [µg],Urinary excretion Total (0–48 h) [2] [µg]
O=C1CCC(Cc2cc(O)cc(OC3OC(C(=O)O)C(O)C(O)C3O)c2)O1 (stereo not drawn) [compound 10],0.015 ± 0.00561,12.78 ± 2.85,14.44 ± 2.42,125.55 ± 47.68,5.34 ± 5.34,0.00 ± 0.00,101.70 ± 51.36,316.86 ± 132.04,199.53 ± 88.98,624.93 ± 108.36,281.58 ± 60.75,65.29 ± 25.62,1595.23 ± 260.71
O=C(O)CNC(=O)c1ccc(O)cc1 [compound 47],0.816 ± 0.269,6.50 ± 1.28,21.55 ± 0.74,5719.44 ± 1327.87,–,–,–,–,–,–,–,–,–
O=C(O)c1ccc(O)c(OC2OC(C(=O)O)C(O)C(O)C2O)c1 (stereo not drawn) [compound 35],–,–,–,–,1.13 ± 1.13,14.20 ± 4.88,24.68 ± 5.82,12.53 ± 4.10,3.10 ± 1.12,4.51 ± 1.34,–,–,60.16 ± 9.86
O=C(O)[C@H]1O[C@@H](Oc2ccc3c(c2)oc(=O)c2ccc(O)cc23)[C@H](O)[C@@H](O)[C@@H]1O [compound 43],–,–,–,–,–,–,–,6.91 ± 6.55,5.49 ± 5.21,36.41 ± 34.54,14.38 ± 9.83,5.33 ± 5.05,68.53 ± 55.19
O=C(O)CCc1cccc(O)c1.O=C(O)CCc1cccc(O)c1 [compound 40],0.443 ± 0.0993,7.13 ± 0.77,7.50 ± 2.38,1554.29 ± 644.33,96.20 ± 96.20,85.67 ± 85.67,–,–,287.94 ± 287.94,262.06 ± 138.26,–,676.70 ± 383.40,1408.57 ± 544.97
COc1ccc(C2CC(=O)c3c(O)cc(OC4OC(C(=O)O)C(O)C(O)C4O)cc3O2)cc1O (stereo not drawn) [compound 28],0.0199 ± 0.00231,7.11 ± 0.90,17.83 ± 1.54,152.05 ± 27.84,14.48 ± 5.94,4.02 ± 2.90,20.07 ± 4.27,28.56 ± 5.46,9.57 ± 2.19,30.72 ± 8.04,19.07 ± 5.57,22.33 ± 5.83,148.81 ± 14.88
O=C1CCC(Cc2cccc(O[C@@H]3O[C@H](C(=O)O)[C@@H](O)[C@H](O)[C@H]3O)c2)O1 (stereo partly drawn) [compound 17],0.00634 ± 0.00166,5.88 ± 0.95,7.13 ± 2.27,22.00 ± 6.41,15.01 ± 15.01,15.42 ± 15.42,196.48 ± 138.99,169.91 ± 105.95,65.96 ± 36.27,468.44 ± 330.34,81.71 ± 28.26,16.56 ± 16.56,1029.49 ± 394.77
